Test results as given in patent US20070270429A1, “Function Inhibitor of Effector Cell” (priority 2003, published 2007).

Tested on: human CD8-positive T cell
Experiment: Allo-reaction growth test (class I-MLR) of human CD8-positive T cell with dendritic cell
Format: cell-based
Settings: 5 days
Experimental: After treating the cells with BrdU for a predetermined period of time, the plate was centrifuged (300×g, 10 minutes), and then turned upside down and lightly shaken to remove the labeled medium. The plate was dried (for about 15 minutes) using a hair dryer. A cell fixing and DNA denaturing solution (200 μl, attached to the kit) was added to each well and left alone for 30 minutes. After removing the cell fixing and DNA denaturing solution and further removing water, a peroxidase-labeled anti-BrdU antibody (anti-BrdU-POD reaction solution) (100 μl) (attached to the kit) was added thereto and left alone at room temperature for 90 minutes. The antibody solution was discarded, each well was washed three times with PBS (200 μl), water was discarded, and then the substrate solution (100 μl) (attached to the kit) was added thereto. After carrying out the enzyme reaction for a period of 5 to 30 minutes, 1 N sulfuric acid solution (25 μl) was added thereto and stirred on a shaker. The absorbance of samples was measured by a microplate reader (SPECTRAMAX-PRO) at 450 nm (control wavelength: 690 nm).
A heparinized blood sample was collected from a human, healthy volunteer, and peripheral blood mononuclear cell (PBMC) was isolated by the density gradient centrifugation described in the above-described (2-1). CD8-positive T cell was isolated from this PBMC by the negative selection method described in the above-described (2-1).
CD 14-positive cell was obtained by fractionating the PBMC obtained by the above-described method using VarioMACS (Miltenyl Biotec). Specifically, CD14 antigen was labeled with antibody magnetic beads by adding 20 μl of CD14 MicroBeads (Miltenyl Biotec) to 1×10^7 cells of the PBMC, mixing them and incubating at 6 to 12° C. for 15 minutes. The cells were washed once with an MACS buffer (PBS containing 2 mM EDTA and 0.5% bovine serum albumin (BSA)) (20 ml) (attached to the kit) and re-suspended in the MACS buffer (2 ml). […]

CCCCN1C(=O)[C@@H]([C@H](O)C2CCCCC2)NC(=O)C12CCN(Cc1ccc(Cc3ccc(C(=O)O)cc3OC)cc1)CC2 [Compound (b), 4-[4-({(3R)-1-butyl-3-[(R)-cyclohexyl(hydroxy)methyl]-2,5-dioxo-1,4,9-triazaspiro[5.5]undec-9-yl}methyl)benzyl]-3-methoxybenzoic acid]
inhibition ratio of allo-reaction growth (0.1 μM): 7.8%
inhibition ratio of allo-reaction growth (1 μM): 17.6%
inhibition ratio of allo-reaction growth (10 μM): 44.1%
